Several values for one entry are separate records, joined by “and”; a condition that tells them apart may be missing. Identical values can stand only once.
Columns and labels:
[1] = Standard battery of genotoxicity assays in vitro and in vivo
[2] = Pharmacokinetics in special populations (total PDE4 inhibitory activity); details: in vivo
[3] = Non-clinical safety pharmacology and toxicity studies
Excerpt: Non-clinical data reveal no special hazard for humans based on conventional studies of safety pharmacology and repeated dose toxicity. Furthermore, there is no evidence of immunotoxic, skin sensitizing or phototoxic potential.

patients with COPD [4] = details: Reference 13; cited from earlier work
[5] = system: bronchial ciliary activity; assay: Bronchial ciliary activity in vitro
[6] = system: CYP 1A2, 2A6, 2B6, 2C8, 2C9, 2C19, 2D6, 2E1, 3A4/5, or 4A9/11
[7] = Excretion into milk of lactating rats; type: in vivo, rat; details: roflumilast and/or its metabolites
Excerpt: Excretion of roflumilast and/or metabolites into human milk is probable. Roflumilast should not be used during breast-feeding.

[8] = system: patients with COPD and chronic cough and sputum production; details: in vivo
[9] = system: patients with COPD and chronic cough and sputum production; assay: M2-125 study: 52-week placebo-controlled trial of oral roflumilast 500 μg once a day
mouse = assay: Labor and delivery in the mouse; type: in vivo
Excerpt: Roflumilast should not be used during labor and delivery.

CYP 2B6 = CYP 2B6 induction in vitro
patients with COPD [10] = assay: Sputum cell counts in patients with COPD
[11] = Blood-brain barrier penetration of radiolabeled roflumilast in rats
[12] = Human spermatogenesis study; details: 500 mcg; 3-month treatment and 3-month off-treatment period
[13] = system: human airway epithelial cells; assay: MUC5AC formation; details: human airway epithelial cells and animal experiments
PDE3 = PDE3 inhibition; type: biochemical; details: at the doses administered
[14] = Phase I studies, single oral doses of 2,500 mcg and 5,000 mcg; type: in vivo, human; details: single oral doses of 2,500 mcg and one single dose of 5,000 mcg
clinical = details: human, in vivo
rabbits = assay: Embryo-fetal development studies in rabbits; type: in vivo, rabbit; details: up to 0.8 mg/kg/day
[15] = system: endotoxin challenged healthy volunteers; assay: Endotoxin challenge in healthy volunteers
Plasma protein binding = type: in vitro ADME
[16] = system: unselected patients with severe COPD; details: Reference 14; cited from earlier work
animal models = assay: Smoke-induced lung damage animal models; details: animal models in vivo
hamster = assay: Two year hamster carcinogenicity studies; type: in vivo
Procedure: No other treatment-related neoplastic findings were observed. Overall, the tumor-free level in the animals was 4 mg/kg/day.

COPD patients = assay: Adverse events in 14 double-blind, placebo-controlled Phase II/III studies; type: in vivo, human; details: 14 Phase II/III studies, N = 6563
Excerpt: The population was 25 to 93 years old (median age 64), 72% were male, and 89% were white.

[17] = human, in vivo

Compound: O=C(Nc1c(Cl)cncc1Cl)c1ccc(OC(F)F)c(OCC2CC2)c1 [Roflumilast, N-(3,5-dichloropyridin-4-yl)-3-cyclopropylmethoxy-4-difluoromethoxy-benzamide]
- Genotoxic potential [1]: did not reveal a genotoxic potential
- Total PDE4 inhibitory activity in smokers [2]: slightly decreased
- Total PDE4 inhibitory activity in the elderly [2]: increased
- Total PDE4 inhibitory activity in women compared with men [2]: increased
- Immunotoxic, skin sensitizing or phototoxic potential [3]: no evidence
- Airway inflammation, sputum neutrophil and eosinophil counts (patients with COPD [4]): reduces airway inflammation
- Bronchial ciliary activity [5]: stimulated
- Inhibition of CYP 1A2, 2A6, 2B6, 2C8, 2C9, 2C19, 2D6, 2E1, 3A4/5, or 4A9/11 [6]: do not inhibit
- Excretion into milk [7]: excreted into the milk
- Adverse event Upper respiratory tract infection, patients ([8]; human, 52 weeks): 33 (4%) number (%)
- Occurrence of rhythm disturbances vs placebo [8]: no difference
- Change in C-reactive protein from baseline to last postrandomisation visit [9]: 1.1; n = 680 mg/L
- Median time to first exacerbation (moderate or severe) [IQR] [9]: 73.0 (26.0-195.0); days
- Median time to second exacerbation (moderate or severe) [IQR] [9]: 188.0 (84.0-281.0) days
- Number of patients needed to treat to prevent one moderate or severe exacerbation per year [9]: 3.6 and 3.64
- Time to mortality (mean, SD) [9]: 201.0 days
- Exacerbations moderate or severe, mean rate [95% CI] ([9]; 52 weeks): 1.21 (1.07-1.36); per patient, per year
- Exacerbations moderate, mean rate [95% CI] ([9]; 52 weeks): 1.04 (0.92-1.18); per patient, per year
- Exacerbations severe, mean rate [95% CI] ([9]; 52 weeks): 0.14 (0.10-0.20); per patient, per year
- Exacerbations treated with systemic corticosteroids, antibiotics, or both, mean rate [95% CI] ([9]; 52 weeks): 1.17 (1.04-1.31); per patient, per year
- Change in postbronchodillator FEV1/FVC ([9]; 52 weeks, mean): 0.552%
- Change in prebronchodillator FEV1/FVC ([9]; 52 weeks, mean): 0.200%
- Change in postbronchodillator FEF25-75 ([9]; 52 weeks, mean (SE)): 21 (5); n = 724 mL/s
- Change in postbronchodillator FEV1 ([9]; 52 weeks, mean (SE)): 44 (7); n = 724 mL
- Change in postbronchodillator FVC ([9]; 52 weeks, mean (SE)): 58 (13); mL
- Change in postbronchodillator PEF ([9]; 52 weeks, mean (SE)): 1.93 (1.49); L/min
- Change in prebronchodillator FEF25-75 ([9]; 52 weeks, mean (SE)): 15 (5); n = 730 mL/s
- Change in prebronchodillator FEV1 ([9]; 52 weeks, mean (SE)): 33 (7); n = 730 mL
- Change in prebronchodillator FVC ([9]; 52 weeks, mean (SE)): 60 (14); mL
- Change in prebronchodillator PEF ([9]; 52 weeks, mean (SE)): 0.75 (1.45); L/min
- Adverse event Influenza, difference ([9]; Roflumilast vs Placebo): −0.99% (−2.51 to 0.53)
- Adverse event Upper respiratory tract infection, difference ([9]; Roflumilast vs Placebo): −0.57% (−2.75 to 1.62)
- Change in C-reactive protein from baseline to last postrandomisation visit, difference ([9]; Roflumilast vs Placebo): Difference 1.1 mg/L
- Change in postbronchodillator FEF25-75, difference ([9]; Roflumilast vs Placebo): Difference 29 (18 mL/s
- Change in postbronchodillator FEV1, difference ([9]; Roflumilast vs Placebo): Difference 61 (44 mL
- Change in postbronchodillator FEV1/FVC, difference ([9]; Roflumilast vs Placebo): Difference 0.668%
- Change in postbronchodillator FVC, difference ([9]; Roflumilast vs Placebo): Difference 103 mL
- Change in postbronchodillator PEF, difference ([9]; Roflumilast vs Placebo): Difference 5.07 L/min
- Change in prebronchodillator FEF25-75, difference ([9]; Roflumilast vs Placebo): Difference 25 (13 mL/s
- Change in prebronchodillator FEV1, difference ([9]; Roflumilast vs Placebo): Difference 58 (41 mL
- Change in prebronchodillator FEV1/FVC, difference ([9]; Roflumilast vs Placebo): Difference 0.510%
- Change in prebronchodillator FVC, difference ([9]; Roflumilast vs Placebo): Difference 108 mL
- Change in prebronchodillator PEF, difference ([9]; Roflumilast vs Placebo): Difference 3.85 L/min
- EQ-5D total score, difference ([9]; Roflumilast vs Placebo): Difference 0.0106
- TDI focal score, difference ([9]; Roflumilast vs Placebo): Difference 0.3
- Change in prebronchodillator FVC, difference ([9]; Roflumilast vs Placebo, listed as roflumilast): 108 mL
- EQ-5D total score ([9]; mean): 0.0100
- TDI focal score ([9]; mean (SE)): 0.7 (0.1);
- Adverse event Influenza, patients ([9]; n = 778): 12 (2%) number (%)
- Oral dose with signs of tocolytic activity resulting in delivery retardation and decreased postnatal survival (mouse): ≥ 2 mg/kg/day
- Induction of CYP 2B6 (CYP 2B6): weak induction
- Sputum neutrophils (patients with COPD [10]): reduced
- Penetration across the blood-brain barrier [11]: low penetration
- Semen parameters or reproductive hormones [12]: no effects
- Formation of MUC5AC [13]: inhibited
- Inhibitory effect on PDE3 (PDE3): no appreciable inhibitory effect
- Symptoms observed at an increased rate [14]: headache, gastrointestinal disorders, dizziness, palpitations, lightheadedness, clamminess and arterial hypotension
- Cmax (clinical): 8.8 ng/mL
- clearance (clinical; iv): ~160 mL/min
- half-life (clinical; po): ~17 h
- bioavailability (clinical; po, 500 ug): ~80%
- Teratogenicity (rabbits; oral): not teratogenic
- Post-implantive losses (rabbits): not seen
- Influx of neutrophils and eosinophils into the airways [15]: attenuated
- fraction unbound (Plasma protein binding): ~0.01
- Frequency of exacerbations [16]: did not significantly reduce
- Smoke-induced destruction of lung parenchyma (animal models): reduced
- Neoplastic findings (hamster; hamster, up to 16 mg/kg/day, two year): nasal neoplasms were caused by a drug metabolite, which is absent in humans
- Tumor-free level in the animals (hamster; overall): 4 mg/kg/day
- Treatment-emergent adverse event Diarrhea, incidence (COPD patients; 250 mcg or 500 mcg per day): 10%
- Treatment-emergent adverse event Abdominal pain, incidence (COPD patients): 2%
- Treatment-emergent adverse event Back pain, incidence (COPD patients): 3%
- Treatment-emergent adverse event Decreased appetite, incidence (COPD patients): 2%
- Treatment-emergent adverse event Dizziness, incidence (COPD patients): 2%
- Treatment-emergent adverse event Gastritis, incidence (COPD patients): 1%
- Treatment-emergent adverse event Headache, incidence (COPD patients): 4%
- Treatment-emergent adverse event Insomnia, incidence (COPD patients): 2%
- Treatment-emergent adverse event Nausea, incidence (COPD patients): 5%
- Treatment-emergent adverse event Tremor, incidence (COPD patients): 2%
- Treatment-emergent adverse event Weight decreased, incidence (COPD patients): 6%
- Absorption or pharmacokinetics on co-administration with an antacid [17]: did not alter
- Increase in the total PDE4 inhibition with strong CYP 1A2 inhibitors, such as fluvoxamine [17]: 20-60%
- Interactions with inhaled salbutamol, formoterol, budesonide, oral theophylline, montelukast, digoxin, warfarin, sildenafil, midazolam and an oral contraceptive [17]: No clinically relevant interactions
- Reduction in total PDE4 inhibitory activity with rifampicin [17]: about 60%
- Total PDE4 inhibitory activity with CYP 3A4 inhibitors (erythromycin and ketoconazole) [17]: did not result in increases
- Total PDE4 inhibitory activity with fluvoxamine, enoxacin and cimetidine [17]: resulted in increases
